We go through one substance from US20260240869A1, “ANTIPSEUDOMONAL FUSIDIC ACID COMPOUNDS” (priority 2022, published 2026).

Experiment [1] deals with P. aeruginosa PAO1. Kind of experiment: NPN outer membrane permeability assay. It counts as cell-based, Pseudomonas aeruginosa. Conditions: treatment for ten minutes. From the text:
Further, the fluorescent probe N-phenylnapthylamine (NPN) was used to assess outer membrane permeability changes upon treatment with FA, gentamicin, and FA prodrug. NPN is membrane impermeable and is only weakly fluorescent in aqueous solutions. Upon entry to the cell and interacting with phospholipids, significant fluorescence is observed. […] This residual membrane depolarizing antibacterial activity can be observed in the FA polyamine (FIG. 4a) and the diacylated compound (Table 9).

Experiment [2] relates to P. aeruginosa PAO1. The experiment is described as follows: MIC, CLSI broth microdilution, P. aeruginosa PAO1. It counts as cell-based, Pseudomonas aeruginosa. The protocol:
Antimicrobial Susceptibility Tests. Susceptibility testing was performed in biological triplicate, using the microdilution broth method as outlined by the Clinical and Laboratory Standards Institute. Bacteria were cultured with cation-adjusted Meuller-Hinton broth (Sigma-Aldrich; catalogue number: 90922) or Luria-Bertani (LB) broth (Lennox) in round-bottom 96-well plates (Corning; catalogue number: 3788).
(In general: Dilution methods test growth across graded concentrations, often in twofold steps.)

Consider Gentamicin, for which the “NPN fluorescence (outer membrane permeability)” value in the experiment on P. aeruginosa PAO1 [1] is recorded as “dose-dependent increase”. Also, the “Fold change (MIC)” value in the experiment with P. aeruginosa PAO1 [2] (5 mM MgCl2/CAMH versus CAMH (Table 10)) was 32X. Further, in the experiment on P. aeruginosa PAO1 [2] (CAMH (Table 10)), the MIC P. aeruginosa PAO1, CAMH is 0.25 µg/mL. Also, in the experiment with P. aeruginosa PAO1 [2] (P. aeruginosa PAO1), the “shift in MIC on co-treatment with 5 mM MgCl2” value was 32 -fold. Further, the “MIC P. aeruginosa PAO1, 5 mM MgCl2/CAMH” value in the experiment on P. aeruginosa PAO1 [2] (co-treatment 5 mM MgCl2 in CAMH (Table 10)) came to 8.
